Here are results for two molecules from US7671074B2, “Sulfonylguanidine compounds and pharmaceutical uses thereof” (Gruenenthal GmbH, priority 2000, dated 2010).

In experiment [1] the target is gabapentin binding site. Briefly: Binding assay: displacement of gabapentin from its binding site. Here is the method:
Gabapentin was used in a binding assay in order to check the binding and affinities of the selected compounds. The affinity of the compounds according to the invention was measured via the displacement of gabapentin from its binding site.

Experiment [2] concerns male albino mice (NMRI), formalin-induced nociception. As to the kind of experiment: Formalin test on mice (second phase). Particulars: for ED50: Mus musculus. The class given is in vivo, mouse. Here is the method: The investigations to determine the antinociceptive action of the compounds according to the invention were carried out by the formalin test on male albino mice (NMRI, 25-35 g, Iffa Credo, Belgium).
In the formalin test the first (early) phase (0-15 minutes after the formalin injection) and the second (late) phase (15-60 minutes after the formalin injection) differ (D. Dubuisson et al., Pain, Vol. 4, pp. 161-174 (1977)). The early phase, being a direct reaction to the formalin injection, constitutes a model for acute pain, whereas the late phase is regarded as a model for persistent (chronic) pain (T. J. Coderre et al., Pain, Vol. 52, pp. 259-285 (1993)).
The compounds according to the invention were investigated in the second phase of the formalin test in order to obtain information on the effects of substances in chronic/inflammatory pain. By means of a single subcutaneous formalin injection (20 μl, 1% aqueous solution) into the dorsal side of the right-hand rear paw, a nociceptive reaction was induced in unconstrained experimental animals, manifested in a noticeable licking and biting of the affected paw.
The nociceptive behavior for the test period in the second (late) phase of the formalin test was continuously monitored by observing the animals. The pain reaction was quantified by totaling the time in seconds during which the animals continued to lick and bite the affected paw during the investigation period. After injecting substances that have an antinociceptive effect in the formalin test, the aforedescribed behavior pattern of the animals is reduced or possibly even cancelled.
Corresponding to the substance tests, in which the animals had been injected with the test substance before formalin, the control animals were injected with a vehicle, i.e. solvent (e.g. 0.9% NaCl solution) before the formalin injection. […]
Based on the quantification of the pain reaction, the effect of the substance in the formalin test was determined as the change in the control in percentage terms. […]

Experiment [3] has as its system male Sprague-Dawley rats with L5/L6 spinal nerve ligatures. As to the kind of experiment: In vivo experiments according to Chung (spinal nerve ligation, tactile withdrawal threshold). Particulars: for ED50: Rattus norvegicus. Set-up: species or system rat. Here is the method: In male Sprague-Dawley rats spinal nerve ligatures were applied according to Kim and Chung (1992) to the left L5/L6 spinal nerves. At the same time spinal catheters were implanted according to Pogatzki et al. ^6 (2000). 4 to 6 days after the operation the tactile threshold baseline (withdrawal thresholds) was measured on the ipsilateral and contra lateral rear paw by an electronic vonFrey anaesthesiometer (IITC Life Science, USA). […] After the test and baseline measurement, gabapentin and substances according to the invention were administered. The tactile withdrawal thresholds were measured 30 minutes after administration. The results are expressed as ED50 and % maximal possible effect (% MPE; % of the maximal possible effect) on the ipsilateral side, in which the baseline is taken as 0% and the withdrawal threshold of a control group is taken as 100% MPE.

Where two headings read alike, the source gives them in different places.

For the molecule `N/C(=N\S(=O)(=O)c1ccc(Cl)cc1)NCc1ccccn1` [Example 21, N-{amino-[(pyridin-2-yl-methyl)-amino]-methylene}-4-chlorobenzenesulfonamide], in experiment [1] (displacement of gabapentin from its binding site), the IC50 turned out to be 779 nM. Further, in experiment [1] (inhibition/displacement of gabapentin, concentration 10^−5 μM [sic]), the Percent inhibition is reported as 75%. For the same molecule, the ED50 in experiment [2] (second (late) phase of the formalin test, read-out: Formalin Test on Mice - ED50) is 97 mg/kg; in experiment [3] (read-out:, table title: Analgesia testing in rats according to Chung, further investigation), 13.3 mg/kg. Further, in experiment [2] (result in words), the “inhibition of the formalin-induced nociception” value was “exhibited an inhibition of the formalin-induced nociception”. Also, in experiment [3] (rats, Chung test, further investigation, result in words), the “effect compared with gabapentin” value is “superior in their effect to gabapentin”. For the same molecule, the “effect in the Chung test” value in experiment [3] (rats, further investigation, result in words) is given as “show an effect”.

As for `NCC1(CC(=O)O)CCCCC1` [gabapentin, reference compound], the ED50 in experiment [2] (iv, formalin test, i.v., read-out: ED50 value) turned out to be 79 mg/kg; in experiment [3] (0.5 h), 92.6 mg/kg.

What is called IC50 is the concentration needed to halve the response being measured. Usually ED50 stands for the midpoint of the dose-response relation.
